1 compound from publication PMC9691367, “The PROTAC selectively degrading Bcl-xL represents a novel Hedgehog pathway inhibitor with capacity of combating resistance to Smoothened inhibitors while sparing bone growth” (Theranostics, 2022) can be followed below.

The test system of one data set is Sufu/Gli1 interaction. Kind of data set: Co-immunoprecipitation of Sufu with Gli1 in NIH-3T3 cells. In kind it is cell-based. The settings on record: 1 µM. The method, then:
Cells were lysed in immunoprecipitation lysis buffer (#87787, Thermo Fisher Scientific) supplemented with protease and phosphatase inhibitor cocktail. Cell lysates were incubated with the indicated antibodies at 4 °C overnight, followed by incubation with Protein A/G Plus-Agarose beads (Santa Cruz Biotechnology) at 4 °C for 4 h. Immunoprecipitates were collected by centrifugation and washed three times with washing buffer. The complex was separated from the beads and then boiled for 10 min. The immunoprecipitates and inputs were analyzed by SDS-PAGE and immunoblot using the antibodies as indicated.

Data set [1] deals with Hh pathway (Gli-luciferase) in light II cells. Kind of data set: Dual luciferase reporter assay, Gli-luciferase provoked by SAG in light II cells. In kind it is cell-based. The settings on record: SAG 100 nM, 36 h, read-out: IC50 value inhibiting the Gli-luciferase activity provoked by SAG. The method, then:
Cells seeded in 96-well plates were treated with various treatments as indicated. The luciferase activity in the cell lysates was measured using Dual-Luciferase Reporter Assay System (Promega, Madison, WI, USA) according to the manufacturer's instructions in a luminometer (Molecular Devices, Sunnyvale, CA). The firefly luciferase values were normalized to Renilla values.
Background: A reporter such as luciferase makes a cellular process visible.

Data set [2] deals with light II and NIH-3T3 cells. Kind of data set: In vitro cytotoxicity assay (MTT). Conditions: 10 μM, 72 h. Type of data set: cell-based. As to the method: Cells were seeded in 96-well plates at an appropriate density and treated with compounds for 72 h. The effects on proliferation were determined using MTT according to the manufacturer's protocol.
Figure S2. (A) Viability of NIH-3T3 cells and light II cells was determined by MTT cytotoxicity assays after incubation with various concentrations of SIAIS361034 as indicated for 72 h. Data represent mean ± SD (n = 3). (B) NF-κB luciferase analysis of the effect of SIAIS361034 on NF-κB signaling pathway in 293T cells.The 293T cells were transfected with NF-κB luciferase reporter and Renilla-TK plasmids and […]
μM) for 6 h. Data represent mean ± SD (n = 3). (C) TCF/LEF luciferase analysis of the effect of SIAIS361034 on Wnt signaling pathway in LS174T cells. The LS174T cellswere transfected with TCF/LEF luciferase reporter and Renilla-TK plasmids and […]
Data represent mean ± SD (n = 3).
(1 picture or pasted object on this page, not shown here)

The next data set deals with Mcl-1 (Homo sapiens, UniProt Q07820). Kind of data set: Competitive fluorescence polarization assay, Mcl-1 / FAM-Bim. Type of data set: binding. Conditions: Mcl-1 100 nM, FAM-Bim 5 nM. As to the method: Competitive fluorescence polarization assays were carried out in black-walled plates in assay buffer (20 mM Na2HPO4 ·12H2O, 20 mM NaH2PO4·12H2O, 1 mM EDTA, 50 mM NaCl, 0.05% PF-68). The use of protein/peptide probe pairs was as follows: Bcl-xL (5 nM) and FAM-Bad (5 nM), Bcl-2 (100 nM) and FAM-Bax (5 nM), Mcl-1 (100 nM) and FAM-Bim (5 nM). Assay buffer, proteins, drugs, and peptides were added to the assay plates sequentially. The assay plates were slightly shaken for 3 min and incubated for 30 min at room temperature. The fluorescence polarization was measured on a Synergy 2 reader (BioTek).
Sequence of Mcl-1 (Q07820 whole entry, species assumed): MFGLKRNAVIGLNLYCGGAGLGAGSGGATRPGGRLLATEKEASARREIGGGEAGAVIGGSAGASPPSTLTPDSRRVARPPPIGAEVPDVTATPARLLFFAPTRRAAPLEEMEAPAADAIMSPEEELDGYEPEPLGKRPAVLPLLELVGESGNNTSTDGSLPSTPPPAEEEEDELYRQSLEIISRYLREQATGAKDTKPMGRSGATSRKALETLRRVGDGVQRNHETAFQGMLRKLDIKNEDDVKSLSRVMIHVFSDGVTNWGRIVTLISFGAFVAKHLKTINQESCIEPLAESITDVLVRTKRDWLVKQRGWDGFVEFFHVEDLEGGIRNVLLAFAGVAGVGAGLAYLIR
On the technique in general: Fluorescence polarisation rises when a labelled molecule tumbles more slowly, as on binding a larger partner.

The subject of another data set is Gli1 and Ptch1 mRNA. Kind of data set: RT-qPCR of Hh target genes in NIH-3T3 cells exposed to SAG. In kind it is cell-based. Conditions: 36 h. The method, then: Total RNA was extracted from cells or tissues using the NucleoSpin RNA kit (#740955.50, TaKaRa). RNA reverse transcriptions were performed with PrimeScript RT Reagent Kit with RNase inhibitor (#RR037B, TaKaRa). The quantitative PCR amplifications were performed in triplicate with TB Green Premix Ex Taq (Tli RNase H Plus) (#RR420A, TaKaRa) in an iCycler iQ system (Bio-Rad; Hercules, CA). Relative gene expression for interested genes was calculated using the 2^-ΔΔCt method and normalized to mGUSB expression. Primer sequences for RT-qPCR are as follows: mGli1 forward (5′-[…]-3′), reverse (5′-[…]-3′); mPtch1 forward (5′-[…]-3′), reverse (5′-[…]-3′); mGUSB forward (5′-[…]-3′), reverse (5′-[…]-3′).

The term IC50 denotes the concentration that inhibits the measured activity by half. What is called Ki is a measure of affinity in units of concentration, obtained from inhibition or displacement. Consider `CC1(C)CCC(c2ccc(Cl)cc2)=C(CN2CCN(c3ccc(C(=O)NS(=O)(=O)c4ccc(NCCCN5CCN(CCCC#Cc6cccc7c6CN(C6CCC(=O)NC6=O)C7=O)CC5)c(S(=O)(=O)C(F)(F)F)c4)cc3)CC2)C1` (centres unmarked) [SIAIS361034], for which the “interaction of Sufu with Gli1” value in the data set with Sufu/Gli1 interaction was “increased the interaction of Sufu with Gli1”. Besides, the IC50 in data set [1] is 120 nM. Besides, the “cytotoxicity (MTT)” value in data set [2] is on record as “no toxic effects”. In addition, the Ki at Mcl-1 is greater than 10000 nM. In the data set with Gli1 and Ptch1 mRNA, the “mRNA expression of Hh target genes Gli1 and Ptch1 activated by SAG” value was “significantly blocked”.
